Test results: publication PMC8748870, “Topoisomerase I (TOP1) dynamics: conformational transition from open to closed states” (Nature Communications, 2022)

Biological target: T1, HsTOP1 (Homo sapiens, UniProt P11387)
T1 construct: gene TOP1; recombinant human TOP1, wild type, purified from baculovirus expression
T1 sequence (P11387 2-765): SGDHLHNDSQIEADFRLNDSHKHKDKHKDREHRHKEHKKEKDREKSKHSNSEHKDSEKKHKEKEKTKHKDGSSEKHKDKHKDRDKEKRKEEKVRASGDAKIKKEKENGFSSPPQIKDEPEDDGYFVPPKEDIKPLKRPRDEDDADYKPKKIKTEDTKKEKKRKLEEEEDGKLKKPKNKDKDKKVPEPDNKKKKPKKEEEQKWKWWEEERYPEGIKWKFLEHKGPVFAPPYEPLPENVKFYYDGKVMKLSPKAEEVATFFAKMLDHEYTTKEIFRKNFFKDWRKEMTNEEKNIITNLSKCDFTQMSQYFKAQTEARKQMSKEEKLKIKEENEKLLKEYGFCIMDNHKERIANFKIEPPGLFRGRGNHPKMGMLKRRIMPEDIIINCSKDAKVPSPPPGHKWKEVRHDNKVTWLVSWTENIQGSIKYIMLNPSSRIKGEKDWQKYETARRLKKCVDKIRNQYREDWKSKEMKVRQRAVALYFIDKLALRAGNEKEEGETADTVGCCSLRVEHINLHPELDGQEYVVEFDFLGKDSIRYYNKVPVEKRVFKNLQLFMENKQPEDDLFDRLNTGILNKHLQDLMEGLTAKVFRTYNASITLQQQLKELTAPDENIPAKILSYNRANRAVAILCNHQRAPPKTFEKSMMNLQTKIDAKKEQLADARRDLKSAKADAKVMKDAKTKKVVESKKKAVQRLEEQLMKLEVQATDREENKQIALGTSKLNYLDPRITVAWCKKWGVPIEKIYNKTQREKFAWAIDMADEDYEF
Assay: […]-labelled oligonucleotide cleavage assay, denaturing PAGE
Assay type: biochemical
Conditions: traps TOP1-DNA cleavage complex; 30-bp DNA, pH 7.5, 5 mM Mg2+, 50 mM KCl, 25 °C

CC[C@@]1(O)C(=O)OCc2c1cc1n(c2=O)Cc2cc3ccccc3nc2-1 [CPT, camptothecin]
CPT-dependent cleavage bands: incubation of HsTOP1 induced TOP1ccs exclusively in the presence of CPT
